Reference: PMC10386076, “Discovery of RC-752, a Novel Sigma-1 Receptor Antagonist with Antinociceptive Activity: A Promising Tool for Fighting Neuropathic Pain” (Pharmaceuticals, 2023)
Where two headings read alike, the source gives them in different places.

What was measured:
HeLa cells = experiment: AQP-mediated osmotic water permeability assay (stopped-flow light scattering); conditions: pre-treatment 20 μM, heat stress 42 °C 3 h
Protocol: As an orthogonal assay to determine the functional profile of our compounds, the effect on AQP-mediated water permeability was investigated. AQPs are a family of transmembrane proteins involved in the transport of water and other small molecules (e.g., H2O2) through cell membranes. AQP functions are thus critical in ensuring reactive oxygen species (ROS) scavenging and cell survival. […] Briefly, the osmotic water permeability of HeLa cells was measured by a stopped-flow light scattering method and expressed as a percentage of k relative.
Osmotic water permeability was measured in the HeLa cell suspension by the stopped-flow light scattering method, as previously described. The experiments were performed at 25 °C on the stopped-flow apparatus (RX2000, Applied Photophysics, Leatherhead, UK) with a pneumatic drive accessory (DA.1, Applied Photophysics) straightforwardly coupled with a Varian Cary 50 spectrometer (Varian Australia Pty Ltd., Mulgrave, Australia). Briefly, scattered light intensity with a dead time of 6 ms was recorded at a wavelength of 450 nm. […] To evaluate the effect of the test compounds on water permeability, the HeLa cells were divided into different groups: (1) controls, cells incubated at r.t. (21 °C) in the presence of the same volume of methanol as that of the treated cells; (2) heat-stressed cells, cells heat-treated in a water thermostatic and shacking bath at 42 °C for 3 h; (3) heat-stressed cells pre-treated with the test compounds at a 20 µM final concentration (dissolved in methanol).

zebrafish embryos = experiment: In vivo toxicity in zebrafish embryos; set-up: species or system zebrafish (Danio rerio); conditions: 5 dpf; for embryo phenotype: 0.1 μM and 1 μM; for morphological score: score 5 normal to 0.5 absent; for embryo death at the highest dose: 100 μM
Protocol: The in vivo toxicity was evaluated using the predictive zebrafish animal model, which is suitable for screening drugs for potential toxicity in the nervous, cardiovascular, and digestive system. Zebrafish embryos were exposed to increasing concentrations (from 0.1 to 100 μM) of compounds (R/S)-1c and (R/S)-1d immediately after the eggs’ fertilization. The mortality rate and the kind of developmental deficiencies were evaluated at 5 days post-fertilization (dpf). […] A decrease in the embryo vitality rate and an increase in the entity of damages to the vital structures became more evident at higher concentrations (Figure 7A, Table S2). Compound (R/S)-1c induced embryo death (100% of embryos) at 10 μM, whereas (R/S)-1d caused the death of 5 embryos out of 10 at the same concentration. Moreover, among the living embryos, morphological abnormalities, mainly affecting the shape of the tail, heart, and skin pigmentation, were observed (Figure 7B–E, Table S2). […] Furthermore, the swim bladder was not well inflated, and oedema was evident.
The Tg(GFAP:GFP) zebrafish (Danio rerio) were a kind gift from the Department of Biology, University of Padova (Italy), and were maintained in a re-circulatory system at 28 °C in a light/dark cycle of 14/10 h. They were fed three times a day with dry food and Artemia. The zebrafish embryos and larvae were used for the experiments until 5 days post-fertilization (dpf); mating between 2 females and 1 male was set up the day before the test. The eggs were preserved from predation by adult fish using a plastic separator in the tanks. The eggs were collected right after spawning and used in the teratogenicity experiments. The zebrafish husbandry procedures were performed according to the Directive 2010/63/EU and in compliance with the local animal welfare regulations (authorization n. prot. 18,311/2016; released by the “Comune di Meldola”, 9 November 2016).
The toxicity evaluation was performed as previously reported. Briefly, the eggs were collected, rinsed out with embryo medium (for 1 L of distilled water: 0.1 g sodium bicarbonate, 0.1 g instant ocean, 0.19 g calcium sulphate) and put in different Petri dishes with the same medium; only the unscathed embryos were selected. Generally, 8 embryos per untreated control and treatment concentrations were cultured. The eggs were treated with an increasing concentration of (R/S)-1c and (R/S)-1d, starting from 1 h post-fertilization. They were incubated at 28 °C for about 5 days (without changing the media) in order to allow exposure to the compounds throughout all development stages. The teratogenic effects were evaluated after 5 days from treatment with morphological and viability observations. The experiment was performed in octuplicate, and the data were assessed using a sample score sheet, as reported by Brannen KC and colleagues.

[1] = In vitro metabolic stability in mouse liver microsomes; type: in vitro ADME; conditions: oxidative conditions
Protocol: The in vitro metabolic stability of compound (R/S)-1d was evaluated in mouse plasma and hepatic microsomes.
Mouse liver microsomes (Sigma Aldrich, CD-1 male, pooled) at 0.5 mg/mL were preincubated with the test compound (R/S)-1d dissolved in DMSO at 1 μM in phosphate buffer 50 mM, pH 7.4, and 3 mM MgCl2 for 10 min at 37 °C [75]. The reaction was then started by adding the cofactor mixture solution (NADP, glucose-6-phosphate, glucose-6-phosphate dehydrogenase in 2% NaHCO3). The samples were taken at 0, 10, 30, 45, and 60 min and added to acetonitrile to stop the reaction (n = 3). The samples were then centrifuged, and the supernatant was analyzed by LC-MS/MS to quantify the amount of compound. A control sample without cofactor was always added to check the chemical stability of the test compound. Two reference compounds of known metabolic stability, 7-ethoxycoumarin (7-EC) and propranolol, were present in parallel testing. A fixed concentration of verapamil was added to every sample as an internal standard for LC-MS/MS analyses. The percentage of the area of the test compound remaining at the various incubation times was calculated with respect to the area of the compound at time 0 min.
The intrinsic clearance (Cli) was calculated by the equation: Cli (μL/min/mg) = k/microsomal conc. × 1000 where k is the rate constant (min^−1) and the microsomal protein conc. = 0.5 mg protein/mL. The rate constant k (min^−1), derived for the exponential decay equation (peak area/IS vs. time), was used to calculate the rate of Cli.
The samples were analyzed under the following conditions: UFLC LC-20 Shimadzu coupled with an API 3200 triple-quadrupole (ABSciex); eluents, (phase A) water + 0.1% trifluoroacetic acid (TFA), (phase B) CH3CN + 0.1% TFA; flow rate, 0.3 mL/min; column, Gemini-Nx 5 μm C18 110A (50 × 2.00 mm) at 35 °C; and injection volume, 5 μL. LC–MS/MS analyses were carried out using an ESI(+) interface in a multiple reaction monitoring mode (MRM). The conditions and MRM transitions applied to the compounds are described in Table 3. […]

mice = experiment: Formalin-induced licking paw test; type: in vivo; conditions: Mus musculus
Protocol: This is a model of persistent pain in which the nociceptive response produced by formalin is quantified by measuring the time spent by the mouse licking the injected paw. The intraplantar administration of formalin (2%, 20 μL) produces a biphasic nocifensive behavioral response (i.e., biting or licking the injected hind paw). The acute nociceptive phase, reflecting the chemical activation of sensory C-fibers, lasts for the first 5 min, while the second inflammatory phase takes place between 20 and 30 min and corresponds with the development of nociceptive sensitization in the dorsal horn of the spinal cord.
ICR male mice weighing 20–25 g (5 weeks old) and SD rats weighing 200–250 g (7 weeks old) were used in the experiments. […]
The formalin-induced licking paw test was modified from the method described by Dubuisson and Dennis [79]. […] Each mouse was then placed in an individual clear plastic observational chamber (15 × 15 × 15), and the pain response was recorded for a period of 30 min. The summation of time (in seconds) spent in licking and biting responses of the injected paw during each 5 min block was measured as an indicator of the pain response. The first period (early phase) was recorded 0–5 min after the injection of formalin, and the second period (late phase) was recorded 20–30 min after the injection. […] The data were expressed as mean values (SEM). […]

rats = experiment: Chung's neuropathic pain model (spinal nerve ligation), von Frey mechanical allodynia; type: in vivo, rat
Description: This procedure involves the surgical binding or tying off of the left L5 and L6 spinal nerves in rats and causes long-lasting behavioral signs of mechanical allodynia and ongoing pain. Mechanical allodynia refers to the perception of pain caused by normally non-painful stimuli, such as touch or pressure. […] Mechanical stimulation was then induced using von Frey filaments, a set of calibrated nylon fibers that are used to apply mechanical pressure to the skin or other tissues to measure pain sensitivity. The mechanical threshold for pain was established with the “up and down method”.
ICR male mice weighing 20–25 g (5 weeks old) and SD rats weighing 200–250 g (7 weeks old) were used in the experiments. All the animals were purchased from SAMTACO (Osan-si, Korea). Six mice/group and eight rats/group were used for this study. Four groups of mice were utilized for the assessment of the antinociceptive activity in the formalin test (one vehicle and three doses; 1, 10, and 20 mg/kg given i.p.), while five groups of rats were used for the assessment of the antinociceptive activity in Chung’s neuropathic pain model (one vehicle and four doses; 5, 10, 25 and 50 mg/kg given i.p.). The ICR mice and SD rats were maintained on a 12 hr light–dark cycle (light on between 7:00 p.m. and 7:00 a.m.) and allowed free access to food and water. The temperature and humidity of the animal room were maintained at 22 ± 2 °C and 50 ± 5%, respectively. In this study, we followed the national guidelines for conducting animal experiments. […] All efforts were made to minimize animal suffering and reduce the number of animals used.
Ligation of the left L5 and L6 spinal nerves in the rats was used as an experimental model of neuropathic pain. […] The surgical procedure was performed according to the method described by Kim and Chung [80]. The left L5 spinal nerve was isolated and ligated tightly with 6–0 black silk. The wound was closed in anatomical layers, with the skin being closed with stainless steel wound clips. The animals were then allowed to recover after the surgery. The behavioral signs representing neuropathic pain (mechanical allodynia) were examined in all the rats for 2 weeks postoperatively. The mechanical withdrawal threshold to the application of a von Frey filament (Stoelting, Wood Dale, IL, USA) was measured by using the up–down method [81].The most sensitive area was first determined by poking various areas of the paw with a von Frey hair. Next, the actual test was conducted by gently poking various areas of the spot with the filament. […] The frequency of foot withdrawal expressed as a percentage was used as the index of mechanical allodynia. […] The results were calculated using the one-way analysis of variance (ANOVA) followed by Bonferroni’s post hoc test. […]

Compound: CN(CCC(CO)c1ccc(-c2ccccc2)cc1)Cc1ccccc1 (stereo not drawn) [Compound 1c, 3-([1,1’-biphenyl]-4-yl)-N-benzyl-4-hydroxy-N-methylbutanamine]
- effect on water permeability in heat-stressed HeLa cells (HeLa cells): in line with that of S1R antagonists
- embryo phenotype (zebrafish embryos): normal and vital phenotype
- morphological score (zebrafish embryos; 0.1 μM): < 4
- embryo death (zebrafish embryos; 10 μM): 100 % of embryos
- embryo death at the highest dose (zebrafish embryos): death of all the zebrafish embryos

Compound: OCC(CCN1CCCCC1)c1ccc(-c2ccccc2)cc1 (stereo not drawn) [Compound 1d, 2-([1,1’-biphenyl]-4-yl)-4-(piperidin-1-yl)butan-1-ol]
- effect on water permeability in heat-stressed HeLa cells (HeLa cells): in line with that of S1R antagonists
- embryo phenotype (zebrafish embryos): normal and vital phenotype
- morphological score (zebrafish embryos; 0.1 μM): 5
- morphological score (zebrafish embryos; 1 μM): 4
- death of embryos (zebrafish embryos; 10 μM): 5 embryos out of 10
- morphological score (zebrafish embryos; 10 μM): 1
- embryo death at the highest dose (zebrafish embryos): death of all the zebrafish embryos
- half-life at 1 μM ([1]; male, CD-1, liver microsomes (pooled), pH 7.4, mouse hepatic microsomes 0.5 mg/mL, 1 μM): 7.2 ± 0.3 min
- Cli ([1]; mouse hepatic microsomes 0.5 mg/mL, 1 μM): 192 ± 7 µL/min/mg
- in vitro clearance classification ([1]; mouse hepatic microsomes): high clearance
- ED50 (mice; read-out: ED50, first phase of the formalin test): 13 mg/kg
- ED50 (mice; mice, i.p. 1, 10, 20 mg/Kg 30 min before formalin, 20–30 min, paw licking time, read-out: ED50, second phase of the formalin test): 2.17 mg/kg
- time the antinociceptive effect was extended (rats; i.p. 50 mg/Kg): up to 90 min
- antinociceptive effect (mechanical allodynia) (rats; i.p. 5 and 10 mg/Kg): No significative effect
- time the antinociceptive effect was sustained (rats; i.p. 25 and 50 mg/Kg): up to 60 min
- antinociceptive effect (mechanical allodynia) (rats; i.p. 25 and 50 mg/Kg, 30 min after administration): restore the normal nociceptive functionality
